# Measurements: patent publication EP1299350B1, “SUBSTITUTED BENZAMIDES FOR IMMUNE ENHANCEMENT AND FOR THE TREATMENT OF CANCER, INFECTION AND MANIC-DEPRESSIVE ILLNESS” (Active Biotech AB, priority 2000, dated 2002)
# Test system: AP-1
# Experiment: AP-1-driven luciferase reporter gene assay in Jurkat T cell line (Jurkat/AP-1rep), stimulated with phorbol myristate acetate and ionomycin
# Type: cell-based
# Settings: Jurkat/AP-1rep cells stimulated for 5.5 h at 37°C with phorbol myristate acetate and ionomycin; luciferase luminescence; Figure 1
# Protocol: The compounds of general formula (I) were assayed for AP-1 enhancement. The compounds of this invention were tested in assays for the modulation of stimulated activity of an AP-1-driven reporter gene in the Jurkat T cell line. The activation of this reporter gene results in luciferase production and the amounts of produced luciferase parallels the level of AP-1 activity. A high level of AP-1 activity is pivotal to e.g. high production of IL-2.
# Cells from the Jurkat T cell line were transfected with an AP-1-driven luciferase gene reporter construct (Parra et al., 1997) together with a selection gene vector. Selected clones from the resulting stable AP-1 reporter gene transfectants were used in the assays for AP-1 transcription factor activity. These transfected Jurkat cells (Jurkat/AP-1rep) were grown in RPMI 1640 supplemented with glutamine, hepes, sodium pyruvate, gentamicin, 10% FCS and G418. To evaluate distinct compounds for their capacity to enhance the AP-1 activity, Jurkat/AP-1rep cells were stimulated for 5.5 h in the temperature of 37°C with phorbol myristate acetate and ionomycin in the absence and presence of test compounds. The 96 well plates containing the cell cultures were then put on ice until harvested. […] AP-1 activity was measured as luminiscence produced by luciferase substrate, which was added to the wells in conjunction with measurement.
smiles,measurement,value
"CCN(CC)CCCNC(=O)c1ccc(NC(=O)C(C)C)cc1OC [Compound A, N-[(3-diethylamino)propyl]-4-isobutyrylamino-2-methoxybenzamide]",activity of the AP-1 driven reporter,enhance the activity of the AP-1 driven reporter in a dose dependent fashion down to µM concentrations
